Values of other authors, collected in patent US20230225968A1, “PROCESS FOR PRODUCING VISIBLY CLEAR AQUEOUS CONSUMABLE PRODUCTS” (CHAVAN, Neha, priority 2020, published 2023).

Details: oil-based delivery systems; humans

C=C(C)[C@@H]1CCC(C)=C[C@H]1c1c(O)cc(CCCCC)cc1O [CBD, cannabidiol]
total CBD absorbed: 4%
